Measurements published in PMC7730235, “Discovery of a Novel Class of Covalent Dual Inhibitors Targeting the Protein Kinases BMX and BTK” (International Journal of Molecular Sciences, 2020).

Legend:
JAK3 = biological target: T1, JAK3 (Homo sapiens, UniProt P52333); test: Radiometric kinase assay (Reaction Biology HotSpot); assay type: biochemical; settings: in words, data not shown
T1 construct: purchased Reaction Biology Corporation
T1 sequence (P52333 1-1124): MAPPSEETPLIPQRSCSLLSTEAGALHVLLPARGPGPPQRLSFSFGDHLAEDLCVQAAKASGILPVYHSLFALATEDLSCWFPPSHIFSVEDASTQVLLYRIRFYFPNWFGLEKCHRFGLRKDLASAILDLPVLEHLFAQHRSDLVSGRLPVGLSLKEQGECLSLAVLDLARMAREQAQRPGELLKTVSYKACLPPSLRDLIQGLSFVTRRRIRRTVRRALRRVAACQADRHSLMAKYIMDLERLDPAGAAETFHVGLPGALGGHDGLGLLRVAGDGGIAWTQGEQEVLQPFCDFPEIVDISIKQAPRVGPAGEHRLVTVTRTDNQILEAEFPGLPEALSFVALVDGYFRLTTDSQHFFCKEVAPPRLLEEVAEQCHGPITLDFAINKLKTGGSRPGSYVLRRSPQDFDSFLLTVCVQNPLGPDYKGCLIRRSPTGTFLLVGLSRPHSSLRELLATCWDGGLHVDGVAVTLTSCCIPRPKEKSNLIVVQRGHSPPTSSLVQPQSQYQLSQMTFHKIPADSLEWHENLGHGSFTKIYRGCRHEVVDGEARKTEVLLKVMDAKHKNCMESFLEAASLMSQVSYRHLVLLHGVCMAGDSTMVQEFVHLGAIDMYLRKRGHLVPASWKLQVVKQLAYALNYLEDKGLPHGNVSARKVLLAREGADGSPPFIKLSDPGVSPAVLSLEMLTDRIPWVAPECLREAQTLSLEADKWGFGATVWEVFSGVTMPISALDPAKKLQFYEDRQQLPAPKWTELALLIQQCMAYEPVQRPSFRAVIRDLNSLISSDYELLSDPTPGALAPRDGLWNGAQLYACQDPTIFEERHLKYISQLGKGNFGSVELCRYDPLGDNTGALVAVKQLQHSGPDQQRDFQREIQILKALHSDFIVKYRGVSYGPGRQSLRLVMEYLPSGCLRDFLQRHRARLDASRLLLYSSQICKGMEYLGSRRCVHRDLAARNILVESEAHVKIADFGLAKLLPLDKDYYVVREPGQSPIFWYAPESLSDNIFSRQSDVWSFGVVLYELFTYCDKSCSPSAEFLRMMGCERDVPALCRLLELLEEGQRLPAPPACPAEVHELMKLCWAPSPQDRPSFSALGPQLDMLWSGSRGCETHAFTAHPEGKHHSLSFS
Protocol: If not mentioned differently, in vitro profiling of compounds was performed at Reaction Biology Corporation using the HotSpot™ assay platform.

[1] = biological target: T2, Full length BMX (C-terminal NanoLuc fusion) (Homo sapiens, UniProt P51813); test: Cellular NanoBRET target engagement assay in HEK293T cells; assay type: cell-based; settings: 0.5 µM Tracer K4, 2 h incubation
T2 construct: Full length BMX and BTK was cloned into pFC32K; expressed in transfected cells; host or cells: HEK293T
T2 sequence (P51813 1-675): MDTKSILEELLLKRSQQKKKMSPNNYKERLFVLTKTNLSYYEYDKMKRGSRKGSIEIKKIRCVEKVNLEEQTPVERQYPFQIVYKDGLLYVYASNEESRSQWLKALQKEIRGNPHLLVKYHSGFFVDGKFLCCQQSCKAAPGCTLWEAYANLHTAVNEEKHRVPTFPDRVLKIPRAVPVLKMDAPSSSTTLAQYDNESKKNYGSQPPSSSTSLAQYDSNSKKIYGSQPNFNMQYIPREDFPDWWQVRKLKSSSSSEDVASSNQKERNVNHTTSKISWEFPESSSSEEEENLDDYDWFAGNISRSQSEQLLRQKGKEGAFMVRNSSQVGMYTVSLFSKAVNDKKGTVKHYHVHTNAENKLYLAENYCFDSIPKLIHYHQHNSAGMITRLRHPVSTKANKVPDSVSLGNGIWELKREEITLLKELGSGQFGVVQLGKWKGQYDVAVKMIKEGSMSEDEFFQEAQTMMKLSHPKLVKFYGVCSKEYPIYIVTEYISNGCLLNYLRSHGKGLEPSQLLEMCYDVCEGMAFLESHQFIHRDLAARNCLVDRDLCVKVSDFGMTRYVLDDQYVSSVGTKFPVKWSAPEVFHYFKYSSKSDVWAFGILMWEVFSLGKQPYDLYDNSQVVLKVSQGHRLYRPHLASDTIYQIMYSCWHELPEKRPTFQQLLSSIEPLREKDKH
Protocol: (§1) Full length BMX and BTK was cloned into pFC32K (Promega, Madison, WI, USA) for expression of a C-terminal NanoLuc fusion. The plasmids were transfected into HEK293T cells cultured in DMEM (Gibco, Waltham, MA, USA) supplemented with 10% fetal bovine serum (Gibco, Waltham, MA, USA) and Penicillin/Streptamycin (Gibco, Waltham, MA, USA). NanoBRET assays were performed using the protocol published previously. Briefly, after transfection and 20 h incubation cells were harvested and subsequently resuspended in OptiMEM (Gibco, Waltham, MA, USA). Cells were aliquoted onto […] (Greiner, Kremsmünster, Austria), and inhibitors as well as 0.5 µM Tracer K4 (Promega) for BMX or 0.5 µM Tracer K5 (Promega, Madison, WI, USA) for BTK were added using an ECHO acoustic dispenser. The plates were incubated at 37 °C with 5% CO2 for 2 h prior to the addition of both NanoBRET NanoGlo substrate (Promega, Madison, WI, USA) and extracellular NanoLuc inhibitor. BRET luminescence (450 nm for donor emission and 610 nm for BRET signal) was measured using PHERAstar FSX plate reader (BMG Labtech, Ortenberg, Germany). Milli-BRET units (mBU) were calculated as a ratio between BRET signal and the overall measured luminescence. A dose–response fitting was applied and IC50 values were calculated using the Prism software. […] Experiments were performed as tripicates and repeated at least three times.

[2] = biological target: T3, Full length BTK (C-terminal NanoLuc fusion) (Homo sapiens, UniProt Q06187); test: as above; assay type: cell-based; settings: 0.5 µM Tracer K5, 2 h incubation
T3 construct: Full length BMX and BTK was cloned into pFC32K; expressed in transfected cells; host or cells: HEK293T
Protocol: as §1

kinase domain of BMX [3] = biological target: T4, kinase domain of BMX (Homo sapiens, UniProt P51813); test: Mass spectrometric investigation of covalent binding to BMX (ESI-TOF); settings: 4 °C; for native (unmodified) BMX fraction, 30 min / native (unmodified) BMX fraction, 60 min / native (unmodified) BMX fraction, 120 min / native (unmodified) BMX fraction, 240 min: 1.5-fold molar excess of inhibitor; for covalent labeling of BMX (in words): 1.5-fold molar excess, complete labeling refers to 30 min
T4 construct: The kinase domains of JAK3 and BMX at 2 μM
Protocol: The kinase domain of BMX was diluted to 0.05 mM with buffer containing 20 mM Tris pH 8.0, 200 mM NaCl, 0.5 mM TCEP (pH 7.0) and was subsequently mixed with 0.075 mM inhibitors (ratio of protein to inhibitor of 1:1.5). The mixture was incubated at 4°C. The samples were taken at different time points, the reaction stopped by diluting the sample with a 200-fold excess of 1% formic acid. The denatured protein and the adducts were assessed using electrospray time-of-flight (ESI-TOF) mass spectrometry.

kinase domain of BMX [4] = biological target: T4, kinase domain of BMX; test: Thermal shift (ΔTm) assay; assay type: binding; settings: 2 μM kinase domain, 10 μM inhibitor; mean ± SD of at least three measurements
Protocol: (§2) The kinase domains of JAK3 and BMX at 2 μM were mixed with the inhibitors at 10 μM, and subsequently SyPRO orange dye (Invitrogen Carlsbad, CA, USA) was added. The thermal shift assay and data evaluation were performed as described previously using a Real-Time PCR Mx3005p machine (Stratagene, La Jolla, CA, USA).

kinase domain of JAK3 = biological target: T5, kinase domain of JAK3 (Homo sapiens, UniProt P52333); test: Thermal shift (ΔTm) assay; assay type: binding; settings: 2 μM kinase domain, 10 μM inhibitor; mean ± SD of at least three measurements
T5 construct: The kinase domains of JAK3 and BMX at 2 μM; made in house
Protocol: as §2

T3 sequence (Q06187 whole entry, the tested form may be a part): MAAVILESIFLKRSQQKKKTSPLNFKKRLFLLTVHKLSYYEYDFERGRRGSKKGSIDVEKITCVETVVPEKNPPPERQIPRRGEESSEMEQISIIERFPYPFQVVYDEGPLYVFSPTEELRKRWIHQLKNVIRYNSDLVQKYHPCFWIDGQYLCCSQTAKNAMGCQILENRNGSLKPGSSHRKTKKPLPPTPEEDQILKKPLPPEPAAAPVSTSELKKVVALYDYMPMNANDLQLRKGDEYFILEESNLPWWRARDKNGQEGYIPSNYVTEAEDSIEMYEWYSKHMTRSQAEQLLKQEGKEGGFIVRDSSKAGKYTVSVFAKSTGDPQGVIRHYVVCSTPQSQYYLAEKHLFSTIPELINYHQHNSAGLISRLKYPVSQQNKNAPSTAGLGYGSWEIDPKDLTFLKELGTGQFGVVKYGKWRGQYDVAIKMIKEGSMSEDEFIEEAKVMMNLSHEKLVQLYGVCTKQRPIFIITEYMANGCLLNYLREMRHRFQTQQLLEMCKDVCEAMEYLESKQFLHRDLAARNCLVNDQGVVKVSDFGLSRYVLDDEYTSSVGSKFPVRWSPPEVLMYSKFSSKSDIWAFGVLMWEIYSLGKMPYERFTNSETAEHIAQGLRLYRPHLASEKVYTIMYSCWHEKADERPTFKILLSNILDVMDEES

CCC(=O)Nc1cccc(-c2c[nH]c3ncccc23)c1 [Compound 9b, N-(3-(1H-pyrrolo[2,3-b]pyridin-3-yl)phenyl)propionamide]
JAK3 IC50 of nonreactive analogs (not shown) (JAK3): micromolar range
IC50 [1]: > 10 µM
IC50 [2]: 9.22 ± 3.7 µM
native (unmodified) BMX fraction, 30 min (kinase domain of BMX [3]): 100%
native (unmodified) BMX fraction, 60 min (kinase domain of BMX [3]): 100%
native (unmodified) BMX fraction, 120 min (kinase domain of BMX [3]): 100%
native (unmodified) BMX fraction, 240 min (kinase domain of BMX [3]): 100%
covalent labeling of BMX (in words) (kinase domain of BMX [3]): no modification was detectable

c1ccc(-c2c[nH]c3ncccc23)cc1 [Compound 9c, 3-phenyl-1H-pyrrolo[2,3-b]pyridine]
JAK3 IC50 of nonreactive analogs (not shown) (JAK3): micromolar range

CCC(=O)Nc1cccc(-c2c[nH]c3ncc(C(N)=O)cc23)c1 [Compound 10b, 3-(3-propionamidophenyl)-1H-pyrrolo[2,3-b]pyridine-5-carboxamide]
JAK3 IC50 of nonreactive analogs (not shown) (JAK3): micromolar range
IC50 [1]: > 10 µM
IC50 [2]: > 10 µM
native (unmodified) BMX fraction, 30 min (kinase domain of BMX [3]): 100%
native (unmodified) BMX fraction, 60 min (kinase domain of BMX [3]): 100%
native (unmodified) BMX fraction, 120 min (kinase domain of BMX [3]): 100%
native (unmodified) BMX fraction, 240 min (kinase domain of BMX [3]): 100%
covalent labeling of BMX (in words) (kinase domain of BMX [3]): no modification was detectable

NC(=O)c1cnc2[nH]cc(-c3ccccc3)c2c1 [Compound 10c, 3-phenyl-1H-pyrrolo[2,3-b]pyridine-5-carboxamide]
JAK3 IC50 of nonreactive analogs (not shown) (JAK3): micromolar range

C=CC(=O)Nc1cccc(-c2c[nH]c3ncc(C(=O)NC)cc23)c1 [Compound 11c, 3-(3-acrylamidophenyl)-N-methyl-1H-pyrrolo[2,3-b]pyridine-5-carboxamide]
ΔTm at 10 µM (kinase domain of BMX [4]): 7.84 ± 0.04 °C
ΔTm at 10 µM (kinase domain of JAK3): 10.3 ± 0.37 °C

C=CC(=O)Nc1cccc(-c2c[nH]c3ncc(C(=O)NCC)cc23)c1 [Compound 11d, 3-(3-acrylamidophenyl)-N-ethyl-1H-pyrrolo[2,3-b]pyridine-5-carboxamide]
ΔTm at 10 µM (kinase domain of BMX [4]): 7.35 ± 0.19 °C
ΔTm at 10 µM (kinase domain of JAK3): 10.3 ± 0.26 °C

C=CC(=O)Nc1cccc(-c2c[nH]c3ncc(C(=O)NCC4CC4)cc23)c1 [Compound 11e, 3-(3-acrylamidophenyl)-N-(cyclopropylmethyl)-1H-pyrrolo[2,3-b]pyridine-5-carboxamide]
ΔTm at 10 µM (kinase domain of BMX [4]): 6.94 ± 0.07 °C
ΔTm at 10 µM (kinase domain of JAK3): 9.64 ± 0.28 °C
